Where “and” joins values, the source holds several entries; their conditions need not be identical. Equal entries are not always repeated. Entries after “also recorded” stand apart in the source; their conditions may differ. Where two headings read alike, the source gives them in different places. Square brackets hold non-standard residues; d marks the D form. Ends that are not written are not given here. Peptide text beside a SMILES is read from it. Bip = N[C@@H](Cc1ccc(-c2ccccc2)cc1)C(=O)O
Experiments:
[1] = tested on: Staphylococcus aureus ATCC 25923; assay type: cell-based
How it was run: (§1)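 Microdilution MIC; 1% Bacto Peptone water; inoculum 2×10^6 CFU/ml, mid-log cells; triplicates; peptide levels verified by HPLC before and after addition to wells.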

[2] = tested on: Escherichia coli ATCC 25922; assay type: cell-based
How it was run: as §1

[3] = tested on: MRSA (methicillin resistant S. aureus); assay type: cell-based
Protocol: The bacterial strains used were: Escherichia coli ATCC 25922 and Staphylococcus aureus ATCC 25923. All strains were stored at −70° C. The bacteria were grown in 2% Bacto Peptone water (Difco 1807-17-4). All tests were performed with bacteria in mid-logarithmic growth phase. Determination of the minimum inhibitory concentration (MIC) of the peptides for bacterial strains were performed in 1% Bacto Peptone water. A standard microdilution technique with an inoculum of 2×10^6 CFU/ml was used. All assays were performed in triplets. Since the peptides are positively charged and therefore could adhere to the plastic wells, we controlled the actual concentration of the peptides in the solution by HPLC. There was no difference between the concentration of the peptides before or after adding the solution to the plastic wells.
Table 13 below gives the antibacterial activity and toxicity data for some preferred peptides of the invention. MRSA is methicillin resistant S. aureus and MRSE is methicillin resistant S. epidermidis.

human red blood cells = assay: Hemolytic assay; assay type: cell-based
[4] = tested on: Meth A cells (murine sarcoma cell line); assay: Cytotoxicity on Meth A cells, MTT method; conditions: 4 h
Protocol: Peptide solutions (0.1 ml) were added and the plates incubated at 37° C. for 30 minutes, 4 hours or 24 hours. The cytotoxicity was measured using the MTT method (Mosmann et al., J. Immunol. (1986) 136, 2348-2357).
Cells in the growth phase were harvested and washed in fresh medium and injected subcutaneously into the abdominal region of the mice.
The cytotoxic effect of the peptides on different murine and human tumor cells were measured using the MTT method (Mosmann et al., J. Immunol. (1986) 136, 2348-2357). MTT is a soluble tetrazolium salt yielding a yellow solution when prepared in media or salt solutions lacking phenol red. Dissolved MTT is converted to an insoluble purple formazan by cleavage of the tetrazolium ring by dehydrogenase enzymes. This water insoluble formazan can be solubilized using isopropanol or other solvents and the dissolved material is measured spectrophotometrically. The absorbance was measured as a function of concentration of converted dye.
Cells were maintained in […] medium containing 10% FBS, 1% L-glutamine and 0.1% penicillin and streptomycin. Cells to be used in the assay were grown to confluency, trypsinated and split to single cell suspension, counted and centrifuged at 1500 rpm for 10 min. […][…] of cell suspension was transferred to each well on a 96-well microtiter plate. The cells were stimulated by adding […] of various concentrations of peptides diluted with assay medium to each well. The final concentrations of peptide were for example: 5, 10, 20, 40, 60, 80, 100, and 200 mg/ml. […] As a negative control only medium was added to the cells, and as a positive control (100% killing) 1% triton X-100 was added. Following an incubation period of 4 h., 20 ml MTT dissolved in PBS at a concentration of 5 mg/ml was added to each well, and the plate was incubated further for 2 h. 130 ml of the supernatant were then removed and […] acid alcohol (0.04-0.1 N HCl in isopropanol) added to each well to dissolve the dark blue crystals. The plate was placed on a shaker for 1 h and read spectrophotometrically at 590 nm in a microtiterplate reader using the Softmaxâ program.

normal fibroblasts = assay type: cell-based

MIC MRSA ([3]; methicillin resistant) | MIC E. coli ([2]; ATCC 25922) | Compound | IC50 [4] [µM] | IC50 (normal fibroblasts) [µM] | EC50 (human red blood cells; red cells of human) [µM] | Mic S. Aureus ([1]; ATCC 25923) [µM] | Mic E-coli ([2]; ATCC 25922) [µM] | other results
 |  | C[C@@H](NC(=O)[C@H](Cc1c[nH]c2ccccc12)NC(=O)[C@H](CCCNC(=N)N)NC(=O)[C@H](Cc1c[nH]c2ccccc12)NC(=O)[C@@H](C)NC(=O)[C@@H](CCCNC(=N)N)NC(=O)[C@H](N)Cc1ccc(O)cc1)C(=O)N[C@@H](Cc1c[nH]c2ccccc12)C(=O)N[C@@H](CCCNC(=N)N)C(=O)N[C@@H](Cc1c[nH]c2ccccc12)C(=O)N[C@@H](CCCNC(=N)N)C(N)=O (H-[dY][dR][dA]WRW[dA]WRWR-NH2) |  |  |  |  |  | MIC S. aureus ([1]; Table 14): 5 µg/mL; MIC E. coli ([2]; Table 14, peptides with a proportion of D amino acids): 7.5 µg/mL; MIC MRSA ([3]; Table 14): 2.5 µg/mL
1.2 µM |  | CSCC[C@H](NC(=O)[C@H](CCCNC(=N)N)NC(=O)[C@H](Cc1c[nH]c2ccccc12)NC(=O)[C@H](CCC(N)=O)NC(=O)[C@H](Cc1c[nH]c2ccccc12)NC(=O)[C@H](CCCNC(=N)N)NC(=O)[C@H](CCCNC(=N)N)NC(=O)[C@H](Cc1ccc(-c2ccccc2)cc1)NC(=O)[C@H](CCCCN)NC(=O)[C@@H](N)Cc1ccccc1)C(=O)N[C@@H](CCCCN)C(=O)N[C@@H](CCCCN)C(=O)N[C@@H](CC(C)C)C(=O)NCC(=O)N[C@@H](C)C(=O)O [LFB Bip3] (H-FK[Bip]RRWQWRMKKLGA-OH; N-terminus assumed) |  |  |  |  |  | MIC E. coli ([2]; Table 13, listed as LPB Bip 3): 12.5 µg/mL; MIC MRSA ([3]; Table 13, listed as LPB Bip 3): 2.5 µg/mL
1.2 µM | 10 µg/mL | CSCC[C@H](NC(=O)[C@H](CCCNC(=N)N)NC(=O)[C@H](Cc1ccc(-c2ccccc2)cc1)NC(=O)[C@H](CCC(N)=O)NC(=O)[C@H](Cc1ccc(-c2ccccc2)cc1)NC(=O)[C@H](CCCNC(=N)N)NC(=O)[C@H](CCCNC(=N)N)NC(=O)[C@H](CSCNC(C)=O)NC(=O)[C@H](CCCCN)NC(=O)[C@@H](N)Cc1ccccc1)C(=O)N[C@@H](CCCCN)C(=O)N[C@@H](CCCCN)C(=O)N[C@@H](CC(C)C)C(=O)NCC(=O)N[C@@H](C)C(=O)O [LFB Bip6, 8] |  |  |  |  |  | MIC S. aureus ([1]; Table 13, 8): 3.0 µg/mL; MIC E. coli ([2]; Table 13, 8): ≧12.5 μg/ml; also recorded: ≧5.8 μM; MIC MRSA ([3]; Table 13, 8): 2.5 µg/mL
 |  | CSCC[C@H](NC(=O)[C@H](CCCNC(=N)N)NC(=O)[C@H](Cc1ccc(-c2ccccc2)cc1)NC(=O)[C@H](CCC(N)=O)NC(=O)[C@H](Cc1c(S(=O)(=O)c2c(C)c(C)c3c(c2C)CCC(C)(C)O3)[nH]c2ccccc12)NC(=O)[C@H](CCCNC(=N)N)NC(=O)[C@H](CCCNC(=N)N)NC(=O)[C@H](CSCNC(C)=O)NC(=O)[C@H](CCCCN)NC(=O)[C@@H](N)Cc1ccccc1)C(=O)N[C@@H](CCCCN)C(=O)N[C@@H](CCCCN)C(=O)N[C@@H](CC(C)C)C(=O)NCC(=O)N[C@@H](C)C(=O)O [LFB Bip8 PMC] |  |  |  |  |  | MIC S. aureus ([1]; Table 8): 5 µg/mL; MIC S. aureus ([1]; Table 13): 2.5 μg/ml and 1.1 μM; MIC E. coli ([2]; Table 8): 25 µg/mL; MIC E. coli ([2]; Table 13): 15.0 μg/ml and 6.3 μM; MIC MRSA ([3]; Table 13): 2.5 μg/ml and 1.1 μM
2.4 µM | 4.8 µM | CSCC[C@H](NC(=O)[C@H](CCCNC(=N)N)NC(=O)[C@H](Cc1ccc2ccccc2c1)NC(=O)[C@H](CCC(N)=O)NC(=O)[C@H](Cc1ccc2ccccc2c1)NC(=O)[C@H](CCCNC(=N)N)NC(=O)[C@H](CCCNC(=N)N)NC(=O)[C@H](CSCNC(C)=O)NC(=O)[C@H](CCCCN)NC(=O)[C@@H](N)Cc1ccccc1)C(=O)N[C@@H](CCCCN)C(=O)N[C@@H](CCCCN)C(=O)N[C@@H](CC(C)C)C(=O)NCC(=O)N[C@@H](C)C(=O)O [LFB Nal6, 8] |  |  |  |  |  | EC 50 (human red blood cells): >1000 µg/mL; EC50 (human red blood cells): > 479 µM; % Hemolysis 10 μg/ml (human red blood cells; red cells of human, 10): 2.8%; % Hemolysis 100 μg/ml (human red blood cells; red cells of human, 100): 4.9%; MIC S. aureus ([1]; ATCC 25923): 9.6 µM; MIC S. aureus ([1]; Table 8): 20 µg/mL; MIC S. aureus ([1]; Table 13, 8): 20.0 µg/mL; MIC E. coli ([2]; Table 8): 10 µg/mL; MIC E. coli ([2]; Table 13, 8): 10.0 µg/mL; MIC MRSA ([3]; Table 13, 8): 5.0 µg/mL
2.5 µg/mL | 7.5 µg/mL | N=C(N)NCCC[C@@H](N)C(=O)N[C@@H](Cc1c[nH]c2ccccc12)C(=O)N[C@H](Cc1c[nH]c2ccccc12)C(=O)N[C@@H](CCCNC(=N)N)C(=O)N[C@H](Cc1ccc(O)cc1)C(=O)N[C@@H](Cc1c[nH]c2ccccc12)C(=O)N[C@H](CCCNC(=N)N)C(N)=O [arg-TRP-trp-ARG-tyr-TRP-arg-CONH2] (H-[dR]W[dW]R[dY]W[dR]-NH2; N-terminus assumed) |  |  |  |  |  | MIC S. aureus ([1]; ATCC 25923): 5 µg/mL
2.5 µg/mL | 7.5 µg/mL | N=C(N)NCCC[C@@H](N)C(=O)N[C@H](Cc1c[nH]c2ccccc12)C(=O)N[C@@H](Cc1c[nH]c2ccccc12)C(=O)N[C@@H](CCCNC(=N)N)C(=O)N[C@@H](Cc1ccc(O)cc1)C(=O)N[C@H](Cc1c[nH]c2ccccc12)C(=O)N[C@H](CCCNC(=N)N)C(N)=O [arg-trp-TRP-ARG-TYR-trp-arg-CONH2] (H-[dR][dW]WRY[dW][dR]-NH2) |  |  |  |  |  | MIC S. aureus ([1]; ATCC 25923): 5 µg/mL
2.5 µg/mL | 7.5 µg/mL | C[C@@H](NC(=O)[C@H](CCCNC(=N)N)NC(=O)[C@H](N)Cc1ccc(O)cc1)C(=O)N[C@@H](Cc1c[nH]c2ccccc12)C(=O)N[C@H](CCCNC(=N)N)C(=O)N[C@@H](Cc1c[nH]c2ccccc12)C(=O)N[C@H](C)C(=O)N[C@@H](Cc1c[nH]c2ccccc12)C(=O)N[C@H](CCCNC(=N)N)C(=O)N[C@@H](Cc1c[nH]c2ccccc12)C(=O)N[C@H](CCCNC(=N)N)C(N)=O [tyr-ARG-ala-TRP-arg-TRP-ala-TRP-arg-TRP-arg-CONH2] (H-[dY]R[dA]W[dR]W[dA]W[dR]W[dR]-NH2; N-terminus assumed) |  |  |  |  |  | MIC S. aureus ([1]; ATCC 25923): 7.5 µg/mL
 |  | PAWRKAARWAWRMLKKAA-OH [LFB 14-31A2,6, 10, 17F7K16L14R4 F7 → A7] | 34.6 | 289 | > 455 | 10 | 15 | 
 |  | PAWRKAFRAAARMLKKAA-OH [LFB 14-31A2,6,9, 10, 11, 17F7K16L14R4] | 110 | > 489 | > 489 | 30 | 30 | 
 |  | PAWRKAFRAAWRMLKKAA-OH [LFB 14-31A2,6,9, 10, 17F7K16L14R4] | 16.2 | 46.3 | 382 | 5 | 10 | 
 |  | PAWRKAFRKAWRMLKKAA-OH [LFB 14-31A2,6, 10, 17F7K9, 16L14R4] | 13.5 | 58.7 | > 451 | 10 | 30 | 
 |  | PAWRKAFRWAARMLKKAA-OH [LFB 14-31A2,6, 10, 11, 17F7K16L14R4] | 11.1 | 46.3 | 278 | >2.5 | 10 | 
 |  | PAWRKAFRWAKRMLKKAA-OH [LFB 14-31A2,6, 10, 17F7K11, 16L14R4] | 7.9 | 30.7 | > 451 | <2.5 | 5 | 
 |  | PAWRKAFRWAWRMLKKAA-OH [LFB 14-31A2,6, 10, 17F7K16L14R4] | 6.6 | 17 | 110 | 2 |  | Mic E-coli ([2]; Table 17): 2/4
1.5 µM | 6.2 µM | YRWWRWARRW-NH2 [LFM 17-26 A7R2,8, 9W3,4, 10Y1NH2] |  |  |  |  |  | EC50 (human red blood cells): 543 ± 56 µM; EC 50 (human red blood cells; Table 13, toxicity (hemolysis)): 880 ± 90 µg/mL; MIC S. aureus ([1]; Table 13): 1.0 µg/mL; MIC E. coli ([2]; Table 10): 10 µg/mL; MIC E. coli ([2]; Table 13): 10.0 µg/mL; MIC MRSA ([3]; Table 13): 2.5 µg/mL
